The record followed here is ChEMBL document CHEMBL1201862, “PubChem BioAssay data set” (2004).

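1) Cells in 96-well plates. 2) Compound, 48 h, 5 concentrations. 3) Linear interpolation between surrounding doses. 4) Unreached endpoint = highest concentration. GI50: concentration for 50% inhibition of growth.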 Calls of active or inactive are those of the source. Cut-off read from the data, not from the text of the source: active = GI50 up to about 1.1 µM and inactive = higher.

What all share (test): NCI anticancer screen, dose series, 48 h
Assay [1] deals with A549.
In assay [2] the test system is ACHN.
In assay [3] the test system is BT-549.
Assay [4] deals with HL-60.
The subject of assay [5] is HOP-62.
Assay [6] deals with HOP-92.
Assay [7] has as its system HT-29.
In assay [8] the test system is IGROV-1.
In assay [9] the test system is LOX IMVI.
Assay [10] deals with M14.
The test system of assay [11] is MCF7.
The test system of assay [12] is NCI-H23.
For assay [13], the system named is NCI-H522.
The test system of assay [14] is RPMI-8226.
Assay [15] relates to SF-268.
Assay [16] has as its system SK-MEL-5.
Assay [17] concerns T47D.
Assay [18] deals with TK-10.
In assay [19] the test system is SK-MEL-28.

Regarding `CCOC(=O)/C(=C\c1ccc(C#N)cc1)C(C)=O`, the GI50 in [1] was 60.8 µM (inactive); in assay [2], 23.6 µM (inactive); in assay [3], 13.5 µM (inactive); in assay [4], 34 µM (inactive); in assay [5], 36.8 µM (inactive); in assay [6], 17.4 µM (inactive). For the same molecule, the GI50 is 33.4 µM (inactive) in [7]; 16.8 µM (inactive) in assay [8]; 19.9 µM (inactive) in [9]; 30 µM (inactive) in [10]; 19.9 µM (inactive) in assay [11]; 17.5 µM (inactive) in assay [12]. Also, the GI50 is 11.5 µM (inactive) in assay [13]; 22 µM (inactive) in [14]; 25.2 µM (inactive) in assay [15]; 21.5 µM (inactive) in [16]; 21.4 µM (inactive) in [17]; 24 µM (inactive) in [18].

Turning to `O=C1CSC(c2c(O)ccc3ccccc23)N1n1c(S)nnc(/C=C/c2c(O)ccc3ccccc23)c1=O` (configuration not stated), the GI50 was 1.32 µM (inactive) in [1]; 0.466 µM (active) in assay [2]; 0.908 µM (active) in assay [3]; 0.232 µM (active) in assay [4]; 4.84 µM (inactive) in assay [5]; 16.3 µM (inactive) in assay [6]. Also, the GI50 is 1.27 µM (inactive) in [7]; 2.28 µM (inactive) in [8]; 1.44 µM (inactive) in [9]; 0.935 µM (active) in assay [10]; 0.451 µM (active) in [11]; 1.98 µM (inactive) in assay [12]. Further, the GI50 in assay [13] was 1.14 µM (inactive); in assay [14], 1.26 µM (inactive); in assay [15], 0.771 µM (active); in assay [17], 0.59 µM (active); in assay [18], 1.18 µM (inactive).

For the molecule `O=C1N/C(=N/N=C\C(O)C(O)C(O)C(O)CO)N/C1=C\c1ccc(Cl)cc1` (configuration not stated), the GI50 in [1] is 27.2 µM (inactive); in [2], 21.9 µM (inactive); in [3], 5.52 µM (inactive); in [4], 25.3 µM (inactive); in assay [5] it was 2.72 µM (inactive); in assay [6] it was 1.8 µM (inactive). Further, the GI50 in assay [7] was 17.4 µM (inactive); in [8], 12.4 µM (inactive); in [9], 5.5 µM (inactive); in assay [10], 3.1 µM (inactive); in [11] it was 4.3 µM (inactive); in assay [12] it was 5.32 µM (inactive). The GI50 was 2.75 µM (inactive) in [13]; > 62.8 µM (inactive) in [14]; 3.61 µM (inactive) in assay [15]; 8.55 µM (inactive) in assay [19]; 17 µM (inactive) in assay [16]; 3.25 µM (inactive) in assay [17]. Further, in assay [18], the GI50 is 4.8 µM (inactive).

With `C=CCn1c(N)c(C#N)c(C#N)c1-c1ccccc1`, the GI50 in [1], in [2], in assay [3], in [4], in [5] and in assay [6] was > 100 µM (inactive) in each case. In addition, the GI50 in assay [7], in assay [8], in [9], in assay [10], in assay [11] and in assay [12] was > 100 µM (inactive) each time. Moreover, the GI50 in assay [13], in [14], in [15], in [16], in assay [17] and in assay [18] was > 100 µM (inactive) in each case.

For the molecule `Cc1cc(O)c2c(c1)C(=O)C(c1c(C)cc3c(c1O)C(=O)C1OC1C3=O)=CC2=O` (configuration not stated), the GI50 is 17.7 µM (inactive) in assay [1]; 0.885 µM (active) in assay [2]; 2.4 µM (inactive) in [3]; 0.0175 µM (active) in [4]; 13.1 µM (inactive) in assay [5]; 0.839 µM (active) in [6]. Further, the GI50 is 3.36 µM (inactive) in assay [7]; 9.1 µM (inactive) in [8]; 2.02 µM (inactive) in assay [9]; 2.96 µM (inactive) in assay [10]; 1.84 µM (inactive) in assay [11]; 8.97 µM (inactive) in assay [12]. For the same molecule, the GI50 in assay [13] is 0.469 µM (active); in assay [14], 0.357 µM (active); in assay [15], 7.24 µM (inactive); in assay [19], 1.94 µM (inactive); in assay [16], 6.34 µM (inactive); in assay [17] it was 1.98 µM (inactive). Further, in assay [18], the GI50 is 1.1 µM (active).

As to `O=C(/C=C1\Sc2ccccc2N=C1CC(=O)c1ccccc1)c1ccccc1`, the GI50 in assay [1] was 5.33 µM (inactive); in assay [2], 4.39 µM (inactive); in [3], 8.13 µM (inactive); in assay [4], 4.89 µM (inactive); in [5], 2.32 µM (inactive); in assay [6], 3.35 µM (inactive). Also, the GI50 in assay [7] is 8.49 µM (inactive); in [8], 3.61 µM (inactive); in [9], 3 µM (inactive); in assay [10], 6.14 µM (inactive); in assay [11] it was 4.19 µM (inactive); in assay [12] it was 35.6 µM (inactive). Also, the GI50 in assay [13] is 15.8 µM (inactive); in [14], 4.65 µM (inactive); in [15], 6.4 µM (inactive); in assay [19] it was 8.89 µM (inactive); in assay [16] it was 2.61 µM (inactive); in [17], 6.98 µM (inactive). Also, the GI50 in assay [18] is 5.73 µM (inactive).

`Cc1c2ncccc2cc2oc3ccccc3c(=O)c12`: the GI50 in assay [1] was 12.9 µM (inactive); in [2], 21.9 µM (inactive); in assay [3] it was 55.8 µM (inactive); in assay [4], 34 µM (inactive); in [5], 30.9 µM (inactive); in assay [6] it was 28.3 µM (inactive). Also, the GI50 was 35.6 µM (inactive) in assay [7]; 4.63 µM (inactive) in [8]; 11.1 µM (inactive) in assay [9]; 5.11 µM (inactive) in assay [11]; 47.9 µM (inactive) in assay [12]; 31.5 µM (inactive) in assay [13]. In addition, the GI50 in [14] is > 100 µM (inactive); in assay [15] it was 41.7 µM (inactive); in [19], > 100 µM (inactive); in [16], 18.2 µM (inactive); in assay [17], 18.1 µM (inactive); in [18], 91.4 µM (inactive).

Turning to `CCCCCCc1cc2cc(-c3cn4ccsc4n3)c(=O)oc2cc1O`, the GI50 in assay [1] was > 100 µM (inactive); in assay [2] it was > 100 µM (inactive); in assay [3] it was > 100 µM (inactive); in assay [4] it was > 100 µM (inactive); in assay [5], 64.9 µM (inactive); in [6], > 100 µM (inactive). The GI50 in [7] was > 100 µM (inactive); in assay [8], > 100 µM (inactive); in assay [9], > 100 µM (inactive); in assay [11] it was 99.5 µM (inactive); in assay [12] it was > 82 µM (inactive); in [13] it was 29.2 µM (inactive). The GI50 was 98.9 µM (inactive) in assay [14]; > 58.2 µM (inactive) in assay [15]; > 25.4 µM (inactive) in [19]; > 30.9 µM (inactive) in [16]; > 100 µM (inactive) in assay [17]; > 95.3 µM (inactive) in assay [18].

Turning to `CC1OC(OC2C(O[C@@H]3C[C@@H]4CC[C@@H]5[C@H](CC[C@]6(C)C7C(C[C@@H]56)O[C@]5(CC[C@@H](C)CO5)[C@H]7C)[C@@]4(C)C[C@H]3O)OC(CO)C(O)C2O)C(O)C(O)C1O` (some centres not stated), the GI50 in [1] is 1.86 µM (inactive); in assay [2], 1.75 µM (inactive); in assay [3], 1.93 µM (inactive); in [4], 2.06 µM (inactive); in assay [5], 2 µM (inactive); in assay [6], 2.8 µM (inactive). Further, the GI50 in [7] was 1.62 µM (inactive); in [8] it was 1.73 µM (inactive); in assay [9], 1.78 µM (inactive); in assay [10], 1.79 µM (inactive); in assay [11], 1.85 µM (inactive); in assay [12], 1.82 µM (inactive). For the same molecule, the GI50 in assay [13] was 1.89 µM (inactive); in assay [14] it was 2.28 µM (inactive); in [15], 1.91 µM (inactive); in assay [19] it was 1.85 µM (inactive); in [16], 2.09 µM (inactive); in assay [17], 2.14 µM (inactive). Besides, the GI50 in assay [18] was 1.76 µM (inactive).

As to `COc1cccc(-c2cc(=O)c3ccccc3o2)c1N`, the GI50 was > 91.8 µM (inactive) in [1]; > 100 µM (inactive) in assay [2]; > 100 µM (inactive) in assay [3]; 6.76 µM (inactive) in assay [4]; 18.3 µM (inactive) in assay [5]; > 83.4 µM (inactive) in assay [6]. Moreover, the GI50 in assay [7] was 12.8 µM (inactive); in [8], 87.5 µM (inactive); in [9], > 100 µM (inactive); in assay [10], 5.56 µM (inactive); in assay [11] it was > 100 µM (inactive); in assay [12], 72.9 µM (inactive). Also, the GI50 in assay [13] was 27.9 µM (inactive); in assay [14] it was > 76.6 µM (inactive); in [15], 61.2 µM (inactive); in assay [19], 10.1 µM (inactive); in assay [16], 42.8 µM (inactive); in assay [17], 11.9 µM (inactive). For the same molecule, the GI50 in assay [18] is > 100 µM (inactive).

Turning to `O=c1cc(N2CCOCC2)oc2c(-c3ccccc3)cccc12` [LY-294002], the GI50 in assay [1] was 4.79 µM (inactive); in [2], 7.45 µM (inactive); in assay [3], 5.7 µM (inactive); in assay [4], 14.7 µM (inactive); in assay [5], 4.59 µM (inactive); in assay [6], 9.04 µM (inactive). Besides, the GI50 in assay [7] was 6.25 µM (inactive); in assay [8], 2.49 µM (inactive); in assay [9], 3.72 µM (inactive); in assay [10], 11.1 µM (inactive); in assay [11], 3.09 µM (inactive); in assay [12], 3.76 µM (inactive). The GI50 was 2.21 µM (inactive) in [13]; 2.96 µM (inactive) in assay [14]; 2.28 µM (inactive) in [15]; 16.9 µM (inactive) in assay [19]; 2.49 µM (inactive) in [17]; 23.7 µM (inactive) in [18].
